“Also recorded” adds a separate entry of the source.
Columns and labels:
Assay type in all cases: cell-based, human
[1] = tested on: skeletal muscles in the soNMJ model; test: Contraction analysis of soNMJ model by live imaging; conditions: soNMJ model day 75, control hPSC lines (H1, XM001); 10 μM curare
Method: (§1) Three different regions of the same coverslip were recorded for contraction analysis using a Leica SP8 confocal microscope. Each region was recorded twice for 3 minutes using brightfield with 20× zoom. To quantify the muscle contraction, each movie was analyzed individually using MuscleMotion (an open source ImageJ Macro). A reference frame was automatically detected by MuscleMotion to measure the contraction as a variation in pixel over time. The results were then plotted in Prism8 (GraphPad).

[2] = tested on: skeletal muscle fibers and neurons of the soNMJ model; test: Calcium imaging with Fluo8 in neuromuscular cultures; conditions: day 75, Fluo8-AM, 10 μM curare
Method: Between day 50 and day 100, the cells were incubated at 37° C. with […] of the cell permeant calcium indicator Fluo-8 AM (Abcam). After 30 minutes of incubation, the cells were washed two times with culture medium (NB without phenol red) and left to recover for 15 min in the incubator prior to the start of any optical recording. During acquisition, the samples were kept at 37° C. with 5% CO2. Fluorescent time series images were acquired with a CSU-W1 spinning disk confocal microscope. The calcium transients were recorded for 2-3 minutes at 20 frames per second in three different conditions: without any treatment, with addition of […] Acetylcholine (Sigma Aldrich) and with addition of 10 μM Curare (Sigma Aldrich).
Analysis of the calcium activity was performed by measuring the variation of fluorescence intensity in each ROI with ImageJ. ROIs were detected manually, and neurons and muscle cells could be distinguished by morphology. The variation of fluorescence intensity for each individual ROI was then plotted in Prism 8 (GraphPad).

[3] = tested on: NMJs of the soNMJ model; test: Optogenetic (Channelrhodopsin) stimulation of neurons with muscle contraction readout
Method: For specifically stimulating neurons in the neuromuscular culture, cells were incubated with 1E+9 VG/mL AAV8-hSyn-hChR2 (H134R)-GFP for 48 h at day 50. After 3-4 weeks, the expression of ChR2 (H134R)-GFP was assessed using a confocal microscope. Cultures were transferred to the electrophysiology setup described above, and continuously superfused with HEPES-buffered extracellular solution at room temperature. Bright-field images of 2048×2048 were acquired at 10 Hz using an sCMOS camera (Photometrics Prime BSI Express) with 50 ms exposure time. Every 50 s, ChR2-expressing neurons were optically stimulated with three 5-ms flashes of 470 nm light at 10 Hz, with 10 mW/mm2 intensity. For the analysis, the muscle contraction recorded in brightfield was quantified using MuscleMotion (described below), plotted in Prism8 (GraphPad) and correlated to the light […] pulses.
as §1

[4] = tested on: SMA type I hiPSC derived soNMJ cultures; test: Muscle contraction analysis in SMA type I soNMJ model; conditions: day 50, 10 μM, compared to H1 control
Method: as §1

Question: With curare as the substance, how does the skeletal muscle contraction [1] read?
Answer: blocked the contraction of the skeletal muscles

Question: What about the “calcium activity / firing of the neurons” value [2] of the same substance?
Answer: without affecting the firing of the neurons

Question: What about the “calcium activity in skeletal muscle fibers” value [2] of the same substance?
Answer: blocked the calcium activity in the skeletal muscle fibers; also recorded: abolished the calcium activity in the skeletal muscles

Question: And the “muscle contraction upon optogenetic stimulation of ChR2-GFP+ neurons” value ([3]; day 75, 470 nm light pulse, 10 μM curare)?
Answer: inhibition of muscle contraction even upon optogenetic stimulation; also recorded: blocked the optogenetic stimulation of the skeletal muscles

Question: What about the “muscle contraction response to blue light stimulation after washout” value ([3]; day 75, after washing out curare) of the same substance?
Answer: restored by washing out curare

Question: What about the “muscle contraction in SMA type I soNMJ” value [4] of the same substance?
Answer: did not respond; also recorded: failed to stop spontaneous muscle activity
